Experimental data as given in patent US20260364184A1, “COMPOUND BASED ON OXOISOINDOLINYL-SUBSTITUTED TETRAHYDROPYRIMIDINE-DIONE AND USE THEREOF” (GLUETACS THERAPEUTICS (SHANGHAI) CO., LTD., priority 2023, published 2026).

How the values were obtained:
[1] = tested on: Human acute lymphocytic leukemia T lymphocytes cell line (CCRF-CEM); assay: Inhibition of CCRF-CEM cell proliferation (CellTiter luminescent viability); assay type: cell-based; settings: Homo sapiens, 96 h, Table IH2, BCL-2 inhibitor-based; for inhibition at 0.01 µM: 10 nM, read-out: Inhibition Rate at 10 nM (%); for inhibition at 0.5 µM: 500 nM, read-out: Inhibition Rate at 500 nM (%)
[2] = tested on: Human prostate cancer cell line (NCI-H358); assay: Inhibition of NCI-H358 cell proliferation (CellTiter luminescent viability); settings: Table IH1, BCL-2 inhibitor-based, 96 hours; for inhibition at 0.01 µM: NCI-H358, 10 nM, read-out: Inhibition Rate at 10 nM (%); for inhibition at 0.5 µM: NCI-H358, 500 nM, read-out: Inhibition Rate at 500 nM (%)
Procedure: The tumor cells used herein were cultured in a cell culture medium listed in table 3 at 37 °C in an incubator with 5% CO2. Prior to experimentation, all cell lines used were correctly identified by STR profiling, and tested negative for mycoplasma contamination using a mycoplasma detection kit through routine screenings.
The IC50 values of the compounds of the present disclosure (including the compounds in Table 1, Table 2, and Examples 1-468) were determined using the CellTiter-Meiluncell Luminescent Cell Viability Assay Kit from Dalian Meilun Biotech Co., Ltd. The detailed procedure is as follows: Tumor cells were seeded in 96-well cell culture plates at the densities specified in Table 4. On the following day, the test compounds of the present disclosure were subjected to serial dilution. The dilution can be performed according to one of the following two methods: • (1) The first dilution method: The test compounds of the present disclosure (including the compounds in Table 1, Table 2, and Examples 1-468) were subjected to 5-fold serial dilutions starting from a highest concentration of 2000 μM, resulting in a total of 9 concentrations from high to low (2000, 400, 80, 16, 3.2, 0.64, 0.128, 0.0256, 0.00512 μM). Subsequently, 0.5 μL of the test compound dilution was transferred into the 96-well plate containing the cells, with each well containing 100 μL of cell culture medium. […] Into the 96-well plate, the diluted test compounds and corresponding detection reagents were added, resulting in final test compound concentrations of 500 nM and 10 nM, respectively. The experimental procedure is described below using the diluted 2 μM test compound as an example.
0.5 μL of the aforementioned diluted compound of the present disclosure (including the compounds in Table 1, Table 2, and Examples 1-468) was added to the seeded cells in 100 μL of medium, yielding a final test compound concentration of 10 nM. After the cells were treated with the compounds of the present disclosure for a specified period, the cell viability assay reagent was added to the culture medium according to the kit's instructions to determine cell viability. […] All controls were treated using the same procedure as the compounds of the present disclosure. The growth inhibition curves for the compounds of the present disclosure were plotted using Prism GraphPad software, and the IC50 values were calculated therefrom.

BCL-2 = biological target: T1, BCL-2 (Homo sapiens, UniProt P10415); assay: Western blot degradation of BCL-2; assay type: cell-based; settings: Molt-4 Cell; 24 hours
T1 construct: expression of target proteins in cells; endogenous in cells
Procedure: Conventional Western blot assay was performed to evaluate the effects of the compounds of the present disclosure on the expression of target proteins in cells.
(1) Cell Seeding and Protein Harvesting: The selected cells were processed according to the cell seeding procedure and protein harvesting procedure in Table II-2.
(2) To the collected supernatant, 5×SDS sample loading buffer was added, followed by denaturation at 95 °C for 5 minutes. The denatured samples were then separated by SDS-PAGE electrophoresis on a polyacrylamide gel. Proteins were transferred to a nitrocellulose membrane (0.45 μm NC membrane), blocked with blocking buffer at room temperature for 1 hour, and subjected to antibody incubation and development procedures according to the antibody manufacturer's instructions (Cell Signaling Technology).
Half-Maximal Degradation Concentration value (the drug concentration required for degrading proteins by 50%, abbreviated as DC50) reads method: comparing the grayscale values of Western blot bands from drug-treated samples with those from blank DMSO-treated controls, and identifying the drug concentration range at which the grayscale value is half that of the DMSO-treated control bands.
DC50 values can be calculated using ImageJ software to measure grayscale values of Western blot bands from drug-treated samples. The concentration-response curve is fitted to estimate the drug concentration corresponding to half the grayscale value.
Target protein remaining (%) refers to the percentage of target protein remaining in cells after treatment with protein degrader compounds.
Calculation method for target protein remaining (%): Use ImageJ software to measure grayscale values of Western blot bands from drug (protein degrader)-treated samples. The grayscale value of drug-treated bands is divided by that of internal control protein bands, and the resulting quotient is normalized to obtain the relative percentage of remaining target protein after protein degrader treatment.
Target protein degradation rate (%)=1−target protein remaining (%).

[3] = tested on: Human Acute T Lymphoblastic Leukemia Cells (Molt-4); assay: Inhibition of Molt-4 cell proliferation (CellTiter luminescent viability); assay type: cell-based; settings: Homo sapiens, MOLT-4, 96 h, Table IH3, BCL-2 inhibitor-based, 96 hours; for inhibition at 0.01 µM: Molt-4, 10 nM, read-out: Inhibition Rate at 10 nM (%); for inhibition at 0.5 µM: Molt-4, 500 nM, read-out: Inhibition Rate at 500 nM (%)

T1 sequence (P10415 whole entry): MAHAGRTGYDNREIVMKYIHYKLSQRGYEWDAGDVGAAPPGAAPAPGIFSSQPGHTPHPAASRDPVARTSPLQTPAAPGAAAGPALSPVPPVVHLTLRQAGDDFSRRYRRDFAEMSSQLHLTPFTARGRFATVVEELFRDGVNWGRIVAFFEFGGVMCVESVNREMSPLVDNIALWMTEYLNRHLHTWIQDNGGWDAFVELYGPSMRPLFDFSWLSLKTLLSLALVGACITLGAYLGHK

Degradation of substrate protein BCL-2 (substrate protein remaining %) (BCL-2) | Structure (SMILES) | inhibition at 0.01 µM [1] [%] | inhibition at 0.5 µM [1] [%] | inhibition at 0.01 µM [2] [%] | inhibition at 0.5 µM [2] [%] | inhibition at 0.01 µM [3] [%] | inhibition at 0.5 µM [3] [%]
A (0%≤substrate protein remaining %≤80%) | CC1(C)CCC(c2ccc(Cl)cc2)=C(CN2CCN(c3ccc(C(=O)NS(=O)(=O)c4ccc(N[C@H](CCN5CC6CCC5CN6Cc5ccc6c(c5)C(=O)N(N5CCC(=O)NC5=O)C6=O)CSc5ccccc5)c(S(=O)(=O)C(F)(F)F)c4)cc3)CC2)C1 (stereo partly drawn) [GT-07815, 4-(4-((4′-chloro-4,4-dimethyl-3,4,5,6-tetrahydro-[1,1′-biphenyl]-2-yl)methyl)piperazin-1-yl)-N-((4-(((2R)-4-(5-((2-(2,4-dioxotetrahydropyrimidin-1(2H)-yl)-1,3-dioxoisoindolin-5-yl)methyl)-2,5-diazabicyclo[2.2.2]octan-2-yl)-1-(phenylthio)butan-2-yl)amino)-3-((trifluoromethyl)sulfonyl)phenyl)sulfonyl)benzamide] | -5 to 0 | 50 to 60 | 15 to 20 | 30 to 40 | 5 to 10 | 80 to 100
A (0%≤substrate protein remaining %≤80%) | CC1(C)CCC(c2ccc(Cl)cc2)=C(CN2CCN(c3ccc(C(=O)NS(=O)(=O)c4ccc(N[C@H](CCN5C[C@H]6C[C@@H]5CN6Cc5ccc6c(c5)C(=O)N(N5CCC(=O)NC5=O)C6=O)CSc5ccccc5)c(S(=O)(=O)C(F)(F)F)c4)cc3)CC2)C1 [GT-07816, 4-(4-((4′-chloro-4,4-dimethyl-3,4,5,6-tetrahydro-[1,1′-biphenyl]-2-yl)methyl)piperazin-1-yl)-N-((4-(((R)-4-((1R,4R)-5-((2-(2,4-dioxotetrahydropyrimidin-1(2H)-yl)-1,3-dioxoisoindolin-5-yl)methyl)-2,5-diazabicyclo[2.2.1]heptan-2-yl)-1-(phenylthio)butan-2-yl)amino)-3-((trifluoromethyl)sulfonyl)phenyl)sulfonyl)benzamide] | 5 to 10 | 40 to 50 |  |  | 10 to 15 | 60 to 70

The next lines start with the molecule.

Structure (SMILES) | Degradation of substrate protein BCL-2 (substrate protein remaining %) (BCL-2) | inhibition at 0.01 µM [1] [%] | inhibition at 0.5 µM [1] [%] | inhibition at 0.01 µM [2] [%] | inhibition at 0.5 µM [2] [%] | inhibition at 0.01 µM [3] [%] | inhibition at 0.5 µM [3] [%]
CC1(C)CCC(c2ccc(Cl)cc2)=C(CN2CCN(c3ccc(C(=O)NS(=O)(=O)c4ccc(N[C@H](CCN5CC6CCC5CN6Cc5ccc6c(c5)CN(N5CCC(=O)NC5=O)C6=O)CSc5ccccc5)c(S(=O)(=O)C(F)(F)F)c4)cc3)CC2)C1 (stereo partly drawn) [GT-07811, 4-(4-((4′-chloro-4,4-dimethyl-3,4,5,6-tetrahydro-[1,1′-biphenyl]-2-yl)methyl)piperazin-1-yl)-N-((4-(((2R)-4-(5-((2-(2,4-dioxotetrahydropyrimidin-1(2H)-yl)-1-oxoisoindolin-5-yl)methyl)-2,5-diazabicyclo[2.2.2]octan-2-yl)-1-(phenylthio)butan-2-yl)amino)-3-((trifluoromethyl)sulfonyl)phenyl)sulfonyl)benzamide] | A (0%≤substrate protein remaining %≤80%) | 5 to 10 | 80 to 100 | 15 to 20 | 40 to 50 | 40 to 50 | 80 to 100
CC1(C)CCC(c2ccc(Cl)cc2)=C(CN2CCN(c3ccc(C(=O)NS(=O)(=O)c4ccc(N[C@H](CCN5C[C@H]6C[C@@H]5CN6Cc5ccc6c(c5)CN(N5CCC(=O)NC5=O)C6=O)CSc5ccccc5)c(S(=O)(=O)C(F)(F)F)c4)cc3)CC2)C1 [GT-07812, 4-(4-((4′-chloro-4,4-dimethyl-3,4,5,6-tetrahydro-[1,1′-biphenyl]-2-yl)methyl)piperazin-1-yl)-N-((4-(((R)-4-((1R,4R)-5-((2-(2,4-dioxotetrahydropyrimidin-1(2H)-yl)-1-oxoisoindolin-5-yl)methyl)-2,5-diazabicyclo[2.2.1]heptan-2-yl)-1-(phenylthio)butan-2-yl)amino)-3-((trifluoromethyl)sulfonyl)phenyl)sulfonyl)benzamide] | A (0%≤substrate protein remaining %≤80%) | 20 to 30 | 80 to 100 | 30 to 40 | 50 to 60 | 50 to 60 | 80 to 100
CC1(C)CCC(c2ccc(Cl)cc2)=C(CN2CCN(c3ccc(C(=O)NS(=O)(=O)c4ccc(N[C@H](CCN5C6CCC5CN(Cc5ccc7c(c5)CN(N5CCC(=O)NC5=O)C7=O)C6)CSc5ccccc5)c(S(=O)(=O)C(F)(F)F)c4)cc3)CC2)C1 [GT-07814, 4-(4-((4′-chloro-4,4-dimethyl-3,4,5,6-tetrahydro-[1,1′-biphenyl]-2-yl)methyl)piperazin-1-yl)-N-((4-(((2R)-4-(3-((2-(2,4-dioxotetrahydropyrimidin-1(2H)-yl)-1-oxoisoindolin-5-yl)methyl)-3,8-diazabicyclo[3.2.1]octan-8-yl)-1-(phenylthio)butan-2-yl)amino)-3-((trifluoromethyl)sulfonyl)phenyl)sulfonyl)benzamide] | A (0%≤substrate protein remaining %≤80%) | 50 to 60 | 80 to 100 | 15 to 20 | 40 to 50 | 80 to 100 | 80 to 100
CC1(C)CCC(c2ccc(Cl)cc2)=C(CN2CCN(c3ccc(C(=O)NS(=O)(=O)c4ccc(N[C@H](CCN5CC6CCC(C5)N6Cc5ccc6c(c5)C(=O)N(N5CCC(=O)NC5=O)C6=O)CSc5ccccc5)c(S(=O)(=O)C(F)(F)F)c4)cc3)CC2)C1 [GT-07817, 4-(4-((4′-chloro-4,4-dimethyl-3,4,5,6-tetrahydro-[1,1′-biphenyl]-2-yl)methyl)piperazin-1-yl)-N-((4-(((2R)-4-(8-((2-(2,4-dioxotetrahydropyrimidin-1(2H)-yl)-1,3-dioxoisoindolin-5-yl)methyl)-3,8-diazabicyclo[3.2.1]octan-3-yl)-1-(phenylthio)butan-2-yl)amino)-3-((trifluoromethyl)sulfonyl)phenyl)sulfonyl)benzamide] | A (0%≤substrate protein remaining %≤80%) |  |  |  |  |  | 
